Assay [1] has as its system Human alphaherpesvirus 1. Put plainly: Antiherpes activity was tested as percent of control of plaque-formation against ACG (S1) virus by 30 uM of the compound. The format is functional, acycloguanosine resistant strain.
Assay [2] deals with Human alphaherpesvirus 1. Put plainly: Antiherpes activity was tested as percent of control of plaque-formation against ACG (Tr7) virus by 30 uM of the compound. The format is functional, acycloguanosine resistant strain.
Assay [3] deals with Human alphaherpesvirus 1. Put plainly: Antiherpes activity was tested as percent of control of plaque-formation against BVdUr virus by 30 uM of the compound. The format is functional, bromovinyl deoxyuridine resistant strain.
The test system of assay [4] is Human alphaherpesvirus 2. Put plainly: Antiherpes activity was tested as percent of control of plaque-formation against HSV-2 (333) virus by 30 uM of the compound. The format is functional.
Assay [5] relates to Human alphaherpesvirus 1. Put plainly: Antiherpes activity was tested as percent of control of plaque-formation against HSV-1 (CL101) virus by 30 uM of the compound. The format is functional.
Assay [6] relates to Human alphaherpesvirus 1. The experiment in a line: Antiherpes activity was tested as percent of control of plaque-formation against HSV-1 (KOS) virus by 30 uM of the compound. The format is functional.
The test system of assay [7] is Human alphaherpesvirus 1. The experiment in a line: Antiherpes activity was tested as percent of control of plaque-formation against ACG (S1) virus by 5 uM of the compound. The format is functional, acycloguanosine resistant strain.
Assay [8] deals with Human alphaherpesvirus 1. The experiment in a line: Antiherpes activity was tested as percent of control of plaque-formation against ACG (Tr7) virus by 5 uM of the compound. The format is functional, acycloguanosine resistant strain.
In assay [9] the test system is Human alphaherpesvirus 1. Put plainly: Antiherpes activity was tested as percent of control of plaque-formation against BVdUr virus by 5 uM of the compound. The format is functional, bromovinyl deoxyuridine resistant strain.
Assay [10] has as its system Human alphaherpesvirus 1. Put plainly: Antiherpes activity was tested as percent of control of plaque-formation against HSV-1 (KOS) virus by 5 uM of the compound. The format is functional.
Assay [11] can be described thus: Antiherpes activity was tested as percent of control of plaque-formation against PFAr virus by 5 uM of the compound. The format is functional, Herpes simplex virus unknown type.
Assay [12] concerns Human alphaherpesvirus 1. Put plainly: Antiherpes activity was tested as percent of control of plaque-formation against ACG (S1) virus by 100 uM of the compound. The format is functional, acycloguanosine resistant strain.
Assay [13] deals with Human alphaherpesvirus 1. The experiment in a line: Antiherpes activity was tested as percent of control of plaque-formation against ACG (Tr7) virus by 100 uM of the compound. The format is functional, acycloguanosine resistant strain.
Assay [14] relates to Human alphaherpesvirus 1. The experiment in a line: Antiherpes activity was tested as percent of control of plaque-formation against BVdUr virus by 100 uM of the compound. The format is functional, bromovinyl deoxyuridine resistant strain.
In assay [15] the test system is Human alphaherpesvirus 2. Put plainly: Antiherpes activity was tested as percent of control of plaque-formation against HSV-2 (333) virus by 100 uM of the compound. The format is functional.
The subject of assay [16] is Human alphaherpesvirus 2. The experiment in a line: Antiherpes activity was tested as percent of control of plaque-formation against HSV-2 (CEU-G) virus by 100 uM of the compound. The format is functional.
Assay [17] concerns Human alphaherpesvirus 2. The experiment in a line: Binding affinity against HSV-2(333). The format is functional, organism-based.
Assay [18] relates to Human alphaherpesvirus 1. Put plainly: Antiherpes activity was tested as percent of control of plaque-formation against HSV-1 (CL101) virus by 100 uM of the compound. The format is functional.
The test system of assay [19] is Human alphaherpesvirus 1. Put plainly: Antiherpes activity was tested as percent of control of plaque-formation against HSV-1 (KOS) virus by 100 uM of the compound. The format is functional.
The subject of assay [20] is Human alphaherpesvirus 1. Put plainly: Binding affinity against HSV-1(KOS). The format is functional, organism-based.
Assay [21] can be described thus: Antiherpes activity was tested as percent of control of plaque-formation against PFAr virus by 100 uM of the compound. The format is functional, Herpes simplex virus unknown type.

For the molecule `O=c1[nH]c(=O)n([C@H]2C[C@H](O)[C@@H](CO)O2)cc1/C=C/Br` [BRIVUDINE], the Control was found to be 3.7% in assay [1]; 0.8% in assay [2]; 52% in assay [3]; 1.7% in [4]; 0.4% in assay [5]; 0.1% in assay [6].

Turning to `Nc1nc2c(ncn2COCCO)c(=O)[nH]1` [ACYCLOVIR], the Control in [7] is on record as 100%; in [8] it was 85%; in assay [9] it was 0.7%; in [10], 6.5%; in assay [11], 100%.

The term Ki denotes the equilibrium dissociation constant of an inhibitor or competing ligand from its target. High values mean a looser hold on the target, low ones a stronger hold on the target. `O=c1[nH]c(=O)n([C@H]2C[C@H](O)[C@@H](CO)O2)cc1I` [IDOXURIDINE]: the Control in [12] came to 22%; in assay [13], 2.6%; in [14], 14%; in assay [15], 2.8%; in assay [16], 9.3%; in assay [18] it was 1.6%. The Control in assay [19] amounted to 0.27%; in assay [21] it was 0.1%. For the same molecule, the Ki was determined as 3980 nM in [17] and 1840 nM in assay [20].

For the origin of these results see ChEMBL document CHEMBL1122901, “Synthesis and biological activities of 2-pyrimidinone nucleosides. 2. 5-Halo-2-pyrimidinone 2'-deoxyribonucleosides” (J Med Chem, 1985).
